We go through seven compounds from patent publication US20240124460A1, “METHODS AND COMPOSITIONS FOR TARGETED PROTEIN DEGRADATION” (Ranok Therapeutics (Hangzhou) Co. Ltd., priority 2020, published 2024).

For orientation: IC50 means the concentration at which inhibition is half-maximal. Read a high IC50 as a need for much substance.

The target in assay [1] is T1, HSP90α protein (Homo sapiens, UniProt P07900).
T1 construct: purchased BPS Bioscience #50298
Briefly: HSP90α-binding FP (BODIPY) assay. The following applies: FP competition with BODIPY-labeled RNK04010. The method, boiled down: (§1)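 Fluorescence polarization measured competition with N-terminal human HSP90α, using either FITC-geldanamycin or BODIPY-labelled triazolone RNK04010 as tracer (5 nM final each). Compounds were tested in 2.5-fold dilutions from 20 μM to 5.2 nM, with incubation at 25 °C for 120 min (FITC) or 300 min (BODIPY).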

The subject of assay [2] is MDA-MB-231 human breast adenocarcinoma. Put plainly: MDA-MB-231 CCK-8 proliferation assay. The class given is cell-based. The following applies: MDA-MB-231 cells, 72 hr. Here is the method:
(§2) The following cancer cell lines were employed: A549 human lung carcinoma (ATCC, #CCL-185); BT-474 human breast carcinoma (ATCC, #HTB-20); MDA-MB-231 human breast adenocarcinoma (ATCC, #CRM−HTB-26); MDA-MB-468 human breast adenocarcinoma (ATCC, #HTB-132); MV-4-11 human acute myeloid leukemia (ATCC, #CRL-9591); and U-87 MG human glioblastoma (ATCC, #HTB-14). Cell lines were cultured essentially according to ATCC recommendations.
(§3) 3-fold serial dilutions of each test compound were prepared ranging from 20 μM to 1.02 nM.
(§4) % Inhibition=100−(D−B)/(S−B)*100%. • S: Absorbance of cells treated with DMSO • D: Absorbance of compound-treated cells • B: Absorbance of medium with DMSO without cells
On the technique in general: Formazan colour is commonly taken as a measure of viable cells.

The subject of assay [3] is MV-4-11 human acute myeloid leukemia. Put plainly: MV-4-11 CCK-8 proliferation assay. It is filed as cell-based. The following applies: MV-4-11 cells, 72 hr. The method, boiled down:
(§5)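 CCK-8 absorbance read-out, with inhibition expressed against DMSO-treated cells after subtracting a cell-free DMSO medium blank. Compounds tested over a 3-fold dilution series spanning 20 μM to 1.02 nM; lines grown essentially as ATCC recommends.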

Assay [4] deals with T1, HSP90α protein. Briefly: HSP90α-binding FP (FITC) assay. Conditions: FP competition with FITC-geldanamycin. The method, boiled down:
as §1

In assay [5] the test system is U-87 MG human glioblastoma. Briefly: U87 MG CCK-8 proliferation assay. The class given is cell-based. The following applies: U-87 MG cells, read-out: U87MG CCK-8. The method, boiled down: as §5
For assay [6], the system named is MDA-MB-468 human breast adenocarcinoma. Briefly: MDA-MB-468 CCK-8 proliferation assay. It is filed as cell-based. The following applies: MDA-MB-468 cells, 72 hr. Here is the method: as §2, §3, §4
Assay [7] addresses T2, MAPK7 (Homo sapiens, UniProt Q13164). Briefly: MAPK7 Western blot protein degradation assay in U-87 MG cells. It is filed as cell-based. Details: U-87 MG human glioblastoma cells, which express MAPK7; endogenous in cells; host or cells: U-87 MG. The following applies: 48 hr. In short, it runs like this: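 U-87 MG glioblastoma cells treated with compounds at various concentrations for 48 h at 37 °C. MAPK7 (ERK5) levels in protein-normalized lysates measured by Western blot with β-actin as loading reference, quantified by fluorescence imaging.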

Assay [8] deals with A549 human lung carcinoma. Briefly: A549 CCK-8 proliferation assay. The class given is cell-based. Conditions: A549 cells, 72 hr. How it is done:
as §2, §3, §4

A further assay has as its system ERBB2. Put plainly: ERBB2 (HER2) flow cytometry protein degradation assay in BT-474 cells. The following applies: DC50, BT-474 cells, 24 hr. It is filed as cell-based, human. In short, it runs like this:
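BT-474 cells trypsinised after compound treatment and stained with PE-conjugated anti-ERBB2 antibody, 30 min at 25° C in the dark, then fixed in 1% paraformaldehyde for flow cytometry. % inhibition = 100−(D−B)/(S−B)*100, using treated, untreated-stained and unstained cell fluorescence.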
(In general: A flow cytometer gives signals particle by particle.)

Assay [9] deals with T2, MAPK7. Put plainly: MAPK7 kinase assay (ADP-Glo). The class given is biochemical. Details: purchased Carna Biosciences #04-146. Conditions: ATP 340 μM. The method, boiled down: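 Recombinant human MAPK7 (20 nM) with 0.1 mg/ml myelin basic protein and 340 μM ATP; compounds in 3-fold dilutions from 50 μM to 2.54 nM. ADP formation read by ADP-Glo luminescence, scaled between 0.5% DMSO and 10 μM XMD17-109 controls.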
For orientation: ADP-Glo first removes unused ATP, then detects ADP through luciferase.

Read-outs that look alike come from different tables or passages of the source.

T2 sequence (Q13164 whole entry): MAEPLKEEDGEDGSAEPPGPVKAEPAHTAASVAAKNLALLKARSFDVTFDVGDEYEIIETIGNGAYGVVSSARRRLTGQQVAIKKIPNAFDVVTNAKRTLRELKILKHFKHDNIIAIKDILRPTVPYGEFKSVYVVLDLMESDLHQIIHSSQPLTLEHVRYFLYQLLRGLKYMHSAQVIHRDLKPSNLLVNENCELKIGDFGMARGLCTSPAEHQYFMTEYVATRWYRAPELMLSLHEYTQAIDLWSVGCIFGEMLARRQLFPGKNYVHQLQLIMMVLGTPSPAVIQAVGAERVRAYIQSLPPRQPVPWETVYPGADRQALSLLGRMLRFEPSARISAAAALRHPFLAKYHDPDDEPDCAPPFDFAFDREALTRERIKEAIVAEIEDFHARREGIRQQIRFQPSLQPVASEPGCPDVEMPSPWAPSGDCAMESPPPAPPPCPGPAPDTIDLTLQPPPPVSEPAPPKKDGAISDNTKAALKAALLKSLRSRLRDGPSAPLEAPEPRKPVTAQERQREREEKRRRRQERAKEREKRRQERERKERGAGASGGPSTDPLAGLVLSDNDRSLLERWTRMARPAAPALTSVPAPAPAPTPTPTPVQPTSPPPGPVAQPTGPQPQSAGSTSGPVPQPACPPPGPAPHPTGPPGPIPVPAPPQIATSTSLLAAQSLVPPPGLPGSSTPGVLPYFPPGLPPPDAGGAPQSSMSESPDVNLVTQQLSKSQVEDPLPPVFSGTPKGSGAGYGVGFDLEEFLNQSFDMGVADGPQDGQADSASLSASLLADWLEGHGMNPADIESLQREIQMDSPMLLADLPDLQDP

In the case of `CCOc1cc(N2CCC(C(=O)N3CCC(N4CCN(Cc5ccc(-n6c(O)nnc6-c6cc(C(C)C)c(O)cc6O)cc5)CC4)CC3)CC2)ccc1Nc1ncc2c(n1)N(C)c1ccccc1C(=O)N2C` [Compound 004, 2-((4-(4-(4-(4-(4-(3-(2,4-dihydroxy-5-isopropylphenyl)-5-hydroxy-4H-1,2,4-triazol-4-yl)benzyl)piperazin-1-yl)piperidine-1-carbonyl)piperidin-1-yl)-2-ethoxyphenyl)amino)-5,11-dimethyl-5H-benzo[e]pyrimido[5,4-b][1,4]diazepin-6(11H)-one], the IC50 on HSP90α protein [1] and at HSP90α protein [4] was 100 to 1000 nM in each case. In addition, the EC50 in [2] was < 100 nM; in assay [3] (Homo sapiens, MV4-11), < 100 nM; in [5] (Homo sapiens, U-87 MG, 72 h), < 100 nM; in [6] it was < 100 nM; in assay [8], 100 to 1000 nM. Also, on MAPK7 [7], the “MAPK7 degradation (30 nM)” value is “C (< 33% degradation)”. For the same compound, at MAPK7 [7], the “MAPK7 degradation (100 nM)” value was “C (< 33% degradation)”. Further, the “MAPK7 degradation (1000 nM)” value at MAPK7 [7] is on record as “A (>66% degradation)”. Further, in the assay on ERBB2, the ERBB2 degradation result was “B (DC50 = 100-1000 nM)”.

With `CCOc1cc(N2CCC(C(=O)NCC3CCN(C(=O)C4CCN(Cc5ccc(-n6c(O)nnc6-c6cc(C(C)C)c(O)cc6O)cc5)CC4)C3)CC2)ccc1Nc1ncc2c(n1)N(C)c1ccccc1C(=O)N2C` (stereo not shown) [Compound 010, N-((1-(1-(4-(3-(2,4-dihydroxy-5-isopropylphenyl)-5-hydroxy-4H-1,2,4-triazol-4-yl)benzyl)piperidine-4-carbonyl)pyrrolidin-3-yl)methyl)-1-(4-((5,11-dimethyl-6-oxo-6,11-dihydro-5H-benzo[e]pyrimido[5,4-b][1,4]diazepin-2-yl)amino)-3-ethoxyphenyl)piperidine-4-carboxamide], the EC50 was > 1000 nM in assay [2]; < 100 nM in [3] (Homo sapiens, MV4-11); 100 to 1000 nM in [5] (Homo sapiens, U-87 MG, 72 h); > 1000 nM in assay [6]. In addition, at HSP90α protein [4], the IC50 lay in the range of 100 to 1000 nM. Besides, the ERBB2 degradation result in the assay on ERBB2 was “C (DC50 > 1000 nM)”.

In the case of `CCOc1cc(N2CCC(C(=O)N3CCC(CN4CCN(Cc5ccc(-n6c(O)nnc6-c6cc(CC)c(O)cc6O)cc5)CC4)CC3)CC2)ccc1Nc1ncc2c(n1)N(C)c1ccccc1C(=O)N2C` [Compound 013, 2-((2-ethoxy-4-(4-(4-((4-(4-(3-(5-ethyl-2,4-dihydroxyphenyl)-5-hydroxy-4H-1,2,4-triazol-4-yl)benzyl)piperazin-1-yl)methyl)piperidine-1-carbonyl)piperidin-1-yl)phenyl)amino)-5,11-dimethyl-5H-benzo[e]pyrimido[5,4-b][1,4]diazepin-6(11H)-one], the EC50 in assay [2] was 100 to 1000 nM; in assay [3] (Homo sapiens, MV4-11) it was < 100 nM; in assay [5] (Homo sapiens, U-87 MG, 72 h) it was 100 to 1000 nM; in assay [6], 100 to 1000 nM. Further, at HSP90α protein [4], the IC50 was 100 to 1000 nM. In addition, the “MAPK7 degradation (30 nM)” value on MAPK7 [7] was “C (< 33% degradation)”. In addition, on MAPK7 [7], the “MAPK7 degradation (100 nM)” value was “C (< 33% degradation)”. In addition, at MAPK7 [7], the “MAPK7 degradation (1000 nM)” value is on record as “A (>66% degradation)”. The ERBB2 degradation entry with ERBB2 is reported as “B (DC50 = 100-1000 nM)”.

`CCOc1cc(N2CCC(C(=O)N3CCC(N4CCN(c5ccc(-n6c(O)nnc6-c6cc(C(C)C)c(O)cc6O)cc5)CC4)CC3)CC2)ccc1Nc1ncc2c(n1)N(C)c1ccccc1C(=O)N2C` [Compound 040, 2-((4-(4-(4-(4-(4-(3-(2,4-dihydroxy-5-isopropylphenyl)-5-hydroxy-4H-1,2,4-triazol-4-yl)phenyl)piperazin-1-yl)piperidine-1-carbonyl)piperidin-1-yl)-2-ethoxyphenyl)amino)-5,11-dimethyl-5,11-dihydro-6H-benzo[e]pyrimido[5,4-b][1,4]diazepin-6-one] showed an IC50 on HSP90α protein [1] of 100 to 1000 nM. Further, the EC50 was < 100 nM in assay [2]; < 100 nM in assay [3] (Homo sapiens, MV4-11); 100 to 1000 nM in [5] (Homo sapiens, U-87 MG, 72 h); < 100 nM in [6]; 100 to 1000 nM in [8]. Besides, the “MAPK7 degradation (30 nM)” value at MAPK7 [7] is on record as “C (< 33% degradation)”. Further, the “MAPK7 degradation (100 nM)” value at MAPK7 [7] is on record as “B (33-66% degradation)”. The “MAPK7 degradation (300 nM)” value on MAPK7 [7] (300 nM) is on record as “A (>66% degradation)”. The “MAPK7 degradation (1000 nM)” value on MAPK7 [7] is reported as “A (>66% degradation)”.

For the compound `CCOc1cc(N2CCC(C(=O)N3CCC(CN4CCN(Cc5ccc(-n6c(O)nnc6-c6cc(C(C)C)c(O)cc6OC)cc5)CC4)CC3)CC2)ccc1Nc1ncc2c(n1)N(C)c1ccccc1C(=O)N2C` [Compound 052, 2-((2-ethoxy-4-(4-(4-((4-(4-(3-hydroxy-5-(4-hydroxy-5-isopropyl-2-methoxyphenyl)-4H-1,2,4-triazol-4-yl)benzyl)piperazin-1-yl)methyl)piperidine-1-carbonyl)piperidin-1-yl)phenyl)amino)-5,11-dimethyl-5,11-dihydro-6H-benzo[e]pyrimido[5,4-b][1,4]diazepin-6-one], the IC50 on HSP90α protein [1] and on MAPK7 [9] was > 1000 nM in each case. Also, the EC50 in [2] is > 1000 nM; in assay [3] (Homo sapiens, MV4-11), > 1000 nM; in [5] (Homo sapiens, U-87 MG, 72 h), > 1000 nM; in assay [6] it was > 1000 nM; in [8], > 1000 nM. The ERBB2 degradation entry in the assay on ERBB2 is reported as “C (DC50 > 1000 nM)”.

In turn, `CCOc1cc(N2CCC(C(=O)NCCOCc3ccc(-n4c(O)nnc4-c4cc(C(C)C)c(O)cc4O)cc3)CC2)ccc1Nc1ncc2c(n1)N(C)c1ccccc1C(=O)N2C` [Compound 053, N-(2-((4-(3-(2,4-dihydroxy-5-isopropylphenyl)-5-hydroxy-4H-1,2,4-triazol-4-yl)benzyl)oxy)ethyl)-1-(4-((5,11-dimethyl-6-oxo-6,11-dihydro-5H-benzo[e]pyrimido[5,4-b][1,4]diazepin-2-yl)amino)-3-ethoxyphenyl)piperidine-4-carboxamide] came in with an IC50 at HSP90α protein [1] of 100 to 1000 nM. Further, the EC50 in assay [2] is 100 to 1000 nM; in [3] it was < 100 nM; in [5] (72 hr), 100 to 1000 nM; in assay [6], < 100 nM.

As for `CCOc1cc(N2CCC(C(=O)N3CCC(CN4CCN(Cc5ccc(-n6c(C(=O)NC(C)C(F)(F)F)nnc6-c6cc(CC)c(O)cc6O)cc5)CC4)CC3)CC2)ccc1Nc1ncc2c(n1)N(S(C)(=O)=O)c1ccccc1C(=O)N2C.Cl` (stereo not shown) [Compound 078, 4-(4-((4-((1-(1-(3-ethoxy-4-((5-methyl-11-(methylsulfonyl)-6-oxo-6,11-dihydro-5H-benzo[e]pyrimido[5,4-b][1,4]diazepin-2-yl)amino)phenyl)piperidine-4-carbonyl)piperidin-4-yl)methyl)piperazin-1-yl)methyl)phenyl)-5-(5-ethyl-2,4-dihydroxyphenyl)-N-(1,1,1-trifluoropropan-2-yl)-4H-1,2,4-triazole-3-carboxamide], the IC50 at HSP90α protein [1] and on MAPK7 [9] was 100 to 1000 nM each time. The EC50 is < 100 nM in [3]; 100 to 1000 nM in assay [5] (Homo sapiens, U-87 MG, 72 h); 100 to 1000 nM in [8]. Moreover, the ERBB2 degradation entry in the assay with ERBB2 is given as “B (DC50 = 100-1000 nM)”.
